Test results as given in patent US8030306B2, “Azabicyclic heterocycles as cannabinoid receptor modulators” (Bristol-Myers Squibb Company, priority 2006, dated 2011).
≈ marks a conversion by molar mass, not a printed value.

Legend:
[1] = Thermodynamic equilibrium aqueous solubility assay; type: physicochemical; conditions: thermodynamic from solid, room temperature, default 50 mM pH 6.5 potassium phosphate buffer
Experimental: • Assay Name: Thermodynamic Equilibrium Aqueous Solubility Assay • Description: The purpose of this assay is to provide a medium throughput estimation of the thermodynamic equilibrium aqueous solubility of compounds at room temperature. Solvent system default is 50 mM pH 6.5 potassium phosphate buffer. Detailed Protocol:
Standards Preparation—The calibration standard is prepared by accurately weighing 0.5-0.7 mg of sample in 5 ml of methanol. […] A serial dilution is performed on the standard solution.
The final saturated solution is prepared by adding 1.0 ml of the appropriate aqueous solvent to the remaining portion of material (1 dram submission vial). The solution is sonicated and vortexed for ˜30 seconds. The sample solution is placed on an orbiter that continually agitates the sample solutions for 15-24 hours at room temperature. The final saturated solution is then transferred to a 1.5 ml eppendorf tube and centrifuged for ˜2 min. at 10000 rpms. The supernatant from the saturated solution is transferred to a glass HPLC-suitable vial without filtering since the […] is insufficient to saturate the syringe filter. This sample preparation procedure nullifies the effects of non-specific binding to the filtering apparatus.
The standards and sample are analyzed by HPLC using either UV/Vis diode array or variable wavelength detection. Typical quantitation wavelengths are 210 or 254 nm; detection wavelength can be individually customized to optimize sensitivity. In addition to UV detection, mass spectrometry detection is recommended if available in order to confirm the identity of the HPLC-UV peak of interest.
Dilutions of aqueous test solutions are performed if HPLC-UV peak is beyond the linear portion of the standard calibration curve. Typical dilutions include 100 ul/900 ul (×10) or 500 ul/500 ul (2 ×), as required.

[2] = Canine half-life assay (IV pharmacokinetics); type: in vivo; conditions: dog, plasma; male beagle dogs, IV 1 mg/kg; unit not given in table (text gives hrs)
Experimental: Functional canine half-life of test compounds was determined by methods […] to one of ordinary skill in the art. For example, pharmacokinetic parameters were determined in male beagle dogs (weight of 12.4, 13.2 and 8.9 kg). The intravenous (“IV”) solution dose studies were conducted in a crossover design (n=3). Animals with vascular access ports, chronically implanted in the femoral vein, were used for administration of the dose. The animals had free access to water and were conscious and unrestrained throughout the study. In the IV study, drug was infused at a dose of 1 mg/kg (1 mL/kg) in 50% PEG-400, 10% ethanol and 40% water over 10 minutes. Serial blood samples were collected from the jugular vein at 0.167, 0.25, 0.5, 0.75, 1, 2, 4, 6, 8, 24, 48 and 72 hours post-dose. Plasma was prepared immediately, and the samples were frozen on dry ice and stored at −20° C. until analysis. All samples were analyzed for the concentration of the parent drug by LC-MS/MS analysis.
The pharmacokinetic parameters were calculated by Non-Compartmental Analysis using the […]™ software program (version 4.2, InnaPhase Co., Philadelphia, Pa.). The AUCO-Tlast and AUCtot values were calculated using the trapezoidal summations. The elimination half-life (T1/2) was calculated from the terminal, linear portion of the plasma concentration-time data curve. The total clearance (CLplasma), mean residence time (MRT), and the steady state volume of distribution (Vss) were also calculated after intravenous administration. The total blood clearance (CLblood) was calculated by using the total plasma clearance and the blood to plasma concentration ratio. All results are expressed as mean±SD, unless specified otherwise.

recombinant human CB-1 = molecular target: T1, recombinant human CB-1 (Homo sapiens, UniProt P21554); experiment: Cannabinoid receptor binding assay (radioligand 3H-CP-55,940, CHO-CB-1 membranes); conditions: membranes of CHO cells over-expressing recombinant human CB-1, 2 nM 3H-CP-55,940, read-out: CB1 Ki
T1 construct: expressed in transfected cells; host or cells: CHO cells (CHO-CB-1), membrane preparation
T1 sequence (P21554 whole entry): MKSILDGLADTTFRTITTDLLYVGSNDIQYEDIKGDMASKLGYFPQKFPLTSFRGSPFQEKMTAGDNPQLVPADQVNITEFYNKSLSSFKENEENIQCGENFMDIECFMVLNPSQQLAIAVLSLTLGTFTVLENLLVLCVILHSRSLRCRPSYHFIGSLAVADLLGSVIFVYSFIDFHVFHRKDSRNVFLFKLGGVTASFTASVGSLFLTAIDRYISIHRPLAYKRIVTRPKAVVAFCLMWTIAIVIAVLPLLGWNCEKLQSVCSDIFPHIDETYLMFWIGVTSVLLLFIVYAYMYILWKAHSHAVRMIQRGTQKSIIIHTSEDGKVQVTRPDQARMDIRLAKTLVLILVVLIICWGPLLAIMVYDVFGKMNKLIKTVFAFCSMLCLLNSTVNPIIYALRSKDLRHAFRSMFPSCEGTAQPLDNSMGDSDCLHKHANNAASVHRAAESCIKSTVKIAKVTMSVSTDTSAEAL
Experimental: Radioligand binding studies were conducted in membranes prepared from Chinese Hamster Ovary (CHO) cells that over-express recombinant human CB-1 (CHO-CB-1 cells). Total assay volume for the binding studies was 100 μl. 5 μg of membranes were brought up to a final volume of 95 μl with Binding Buffer (25 mM HEPES, 150 mM NaCl, 2.5 mM CaCl2, 1 mM MgCl2, 0.25% BSA). The diluted membranes were preincubated with a compound or DMSO vehicle. The binding reaction was initiated by the addition of 2 nM final ^3H-CP-55,940 (120 Ci/mmol) and proceeded for 2.5 hours at room temperature. The binding reaction was terminated by transferring the reaction to GF/B 96 well plates (presoaked with 0.3% polyethylenimine) using a Packard Cell Harvester. The filter was washed with 0.25 ×PBS, 30 μl MicroScint was added per well, and the bound radiolabel was quantitated by scintillation counting on a Packard TopCount Scintillation Counter. The CB-2 radioligand binding assay was conducted identically except that the membranes from CHO-CB-2 cells were used.

[3] = 16 week trial period, Phase IIb; cited from earlier work

Structure (SMILES)	solubility [1]	half-life [2]	Ki (recombinant human CB-1)	body weight in human subjects [3]
COCc1nnc2c(-c3ccc(Cl)cc3)c(-c3ccc(C#N)cc3)c(=O)n(Cc3ccc(C(F)(F)F)nc3C)n12 [Example 2, 4-(8-(4-chlorophenyl)-3-(methoxymethyl)-5-((2-methyl-6-(trifluoromethyl)pyridin-3-yl)methyl)-6-oxo-5,6-dihydro-[1,2,4]triazolo[4,3-b]pyridazin-7-yl)benzonitrile]	6 µg/mL (≈ 10.6 µM)	1380 min	5 nM	
Cc1nc(C(F)(F)F)ccc1Cn1c(=O)c(-c2ccc(C#N)cc2)c(-c2ccc(Cl)cc2)c2nnc(CO)n21 [Example 3, 4-(8-(4-chlorophenyl)-3-(hydroxymethyl)-5-((2-methyl-6-(trifluoromethyl)pyridin-3-yl)methyl)-6-oxo-5,6-dihydro-[1,2,4]triazolo[4,3-b]pyridazin-7-yl)benzonitrile]	15 µg/mL (≈ 27.2 µM)	1200 min	3 nM	
Cc1nc(C(F)(F)F)ccc1Cn1c(=O)c(-c2ccc(C#N)cc2)c(-c2ccc(Cl)cc2)c2nnc([C@@H](C)O)n21 [Example 4, (R)-4-(8-(4-chlorophenyl)-3-(1-hydroxyethyl)-5-((2-methyl-6-(trifluoromethyl)pyridin-3-yl)methyl)-6-oxo-5,6-dihydro-[1,2,4]triazolo[4,3-b]pyridazin-7-yl)benzonitrile]	10 µg/mL (≈ 17.7 µM)		15 nM	
Cc1nc(C(F)(F)F)ccc1Cn1c(=O)c(-c2ccc(C#N)cc2)c(-c2ccc(Cl)cc2)c2nnc([C@H](C)O)n21 [Example 5, (S)-4-(8-(4-chlorophenyl)-3-(1-hydroxyethyl)-5-((2-methyl-6-(trifluoromethyl)pyridin-3-yl)methyl)-6-oxo-5,6-dihydro-[1,2,4]triazolo[4,3-b]pyridazin-7-yl)benzonitrile]			10 nM	
Cc1nc(C(F)(F)F)ccc1Cn1c(=O)c(-c2ccc(C#N)cc2)c(-c2ccc(Cl)cc2)c2nnc(CN(C)C)n21 [Example 10, 4-(8-(4-chlorophenyl)-3-((dimethylamino)methyl)-5-((2-methyl-6-(trifluoromethyl)pyridin-3-yl)methyl)-6-oxo-5,6-dihydro-[1,2,4]triazolo[4,3-b]pyridazin-7-yl)benzonitrile]	2 µg/mL (≈ 3.46 µM)		13 nM	
Cc1nc(C(F)(F)F)ccc1Cn1c(=O)c(-c2ccc(C#N)cc2)c(-c2ccc(Cl)cc2)c2nnc(CN)n21 [Example 11, 4-(3-(aminomethyl)-8-(4-chlorophenyl)-5-((2-methyl-6-(trifluoromethyl)pyridin-3-yl)methyl)-6-oxo-5,6-dihydro-[1,2,4]triazolo[4,3-b]pyridazin-7-yl)benzonitrile]			11 nM	
Cc1nc(C(F)(F)F)ccc1Cn1c(=O)c(-c2ccccc2)c(-c2ccc(Cl)cc2)c2nnc(CN)n21 [Example 12]	101 µg/mL (≈ 192 µM)		8 nM	
Cc1ccc(-c2c(-c3ccc(Cl)cc3)c3nnc(CN)n3n(Cc3ccc(C(F)(F)F)nc3C)c2=O)cc1 [Example 13]	20 µg/mL (≈ 37.1 µM)		3 nM	
CNCc1nnc2c(-c3ccc(Cl)cc3)c(-c3ccccc3)c(=O)n(Cc3ccc(C(F)(F)F)nc3C)n12 [Example 14]	25 µg/mL (≈ 46.4 µM)		10 nM	
Cc1nc(C(F)(F)F)ccc1Cn1c(=O)c(-c2ccc(Cl)cc2)c(-c2ccc(Cl)cc2)c2nnc(CN)n21 [Example 15]	16 µg/mL (≈ 28.6 µM)		12 nM	
Cc1ccc(-c2c(-c3ccc(Cl)cc3)c3nnc([C@H](C)N)n3n(Cc3ccc(C(F)(F)F)nc3C)c2=O)cc1 [Example 16]	38 µg/mL (≈ 68.7 µM)		6 nM	
Cc1ccc(-c2c(-c3ccc(Cl)cc3)c(=O)n(Cc3ccc(C(F)(F)F)nc3C)n3c(CN)nnc23)cc1 [Example 17]	31 µg/mL (≈ 57.5 µM)		20 nM	
Cc1ccc(-c2c(-c3ccc(Cl)cc3)c(=O)n(Cc3ccc(C(F)(F)F)nc3C)n3c([C@H](C)O)nnc23)cc1 [Example 18, (S)-7-(4-chlorophenyl)-3-(1-hydroxyethyl)-5-((2-methyl-6-(trifluoromethyl)pyridin-3-yl)methyl)-8-p-tolyl-[1,2,4]triazolo[4,3-b]pyridazin-6(5H)-one]	7 µg/mL (≈ 12.6 µM)		14 nM	
Cc1ccc(-c2c(-c3ccc(Cl)cc3)c3nnc([C@H](C)O)n3n(Cc3ccc(C(F)(F)F)nc3C)c2=O)cc1 [Example 19, (S)-8-(4-chlorophenyl)-3-(1-hydroxyethyl)-5-((2-methyl-6-(trifluoromethyl)pyridin-3-yl)methyl)-7-p-tolyl-[1,2,4]triazolo[4,3-b]pyridazin-6(5H)-one]	7 µg/mL (≈ 12.6 µM)		5 nM	
Cc1nc(C(F)(F)F)ccc1Cn1c(=O)c(-c2ccccc2)c(-c2ccc(Cl)cc2)c2nnc([C@H](C)O)n21 [Example 20, (S)-8-(4-chlorophenyl)-3-(1-hydroxyethyl)-5-((2-methyl-6-(trifluoromethyl)pyridin-3-yl)methyl)-7-phenyl-[1,2,4]triazolo[4,3-b]pyridazin-6(5H)-one]	22 µg/mL (≈ 40.7 µM)		6 nM	
Cc1nc(C(F)(F)F)ccc1Cn1c(=O)c(-c2ccccc2)c(-c2ccc(Cl)cc2)c2nnc([C@@H](C)O)n21 [Example 21, (R)-8-(4-chlorophenyl)-3-(1-hydroxyethyl)-5-((2-methyl-6-(trifluoromethyl)pyridin-3-yl)methyl)-7-phenyl-[1,2,4]triazolo[4,3-b]pyridazin-6(5H)-one]	31 µg/mL (≈ 57.4 µM)		27 nM	
COCc1nnc2c(-c3ccc(Cl)cc3)c(-c3ccccc3)c(=O)n(Cc3ccc(C(F)(F)F)nc3C)n12 [Example 22, 8-(4-chlorophenyl)-3-(methoxymethyl)-5-((2-methyl-6-(trifluoromethyl)pyridin-3-yl)methyl)-7-phenyl-[1,2,4]triazolo[4,3-b]pyridazin-6(5H)-one]	4 µg/mL (≈ 7.41 µM)	2340 min	3 nM	
Cc1c(C(=O)NN2CCCCC2)nn(-c2ccc(Cl)cc2Cl)c1-c1ccc(Cl)cc1 [SR-141716]				dose-dependently reduced body weight
